Earlier results, collected in US9084671B2, “Methods of forming a micronized peptide coated stent” (ABBOTT CARDIOVASCULAR SYSTEMS INC., priority 2002, dated 2015).

Details: stated as a property of the highly cationic guanidinium peptide; no method given

## heptaarginine [heptamer of L-arginine]
  pKa: 13.2
